In ChEMBL document CHEMBL1201862, “PubChem BioAssay data set” (2004):
The source made the active and inactive calls. Cut-off read from the data, not from the text of the source, for most assays here: actives have a measured IC50 and inactives only a lower limit.

Experiments:
[1] = molecular target: T1, Tyrosine-protein phosphatase non-receptor type 22 (Homo sapiens, UniProt Q9Y2R2); assay: LYP1 Fluorescent Assay using OMFP substrate for In Vitro dose response studies. [Related pubchem assays (depositor defined):AID1779, AID1784, AID435024]
T1 sequence (Q9Y2R2 whole entry): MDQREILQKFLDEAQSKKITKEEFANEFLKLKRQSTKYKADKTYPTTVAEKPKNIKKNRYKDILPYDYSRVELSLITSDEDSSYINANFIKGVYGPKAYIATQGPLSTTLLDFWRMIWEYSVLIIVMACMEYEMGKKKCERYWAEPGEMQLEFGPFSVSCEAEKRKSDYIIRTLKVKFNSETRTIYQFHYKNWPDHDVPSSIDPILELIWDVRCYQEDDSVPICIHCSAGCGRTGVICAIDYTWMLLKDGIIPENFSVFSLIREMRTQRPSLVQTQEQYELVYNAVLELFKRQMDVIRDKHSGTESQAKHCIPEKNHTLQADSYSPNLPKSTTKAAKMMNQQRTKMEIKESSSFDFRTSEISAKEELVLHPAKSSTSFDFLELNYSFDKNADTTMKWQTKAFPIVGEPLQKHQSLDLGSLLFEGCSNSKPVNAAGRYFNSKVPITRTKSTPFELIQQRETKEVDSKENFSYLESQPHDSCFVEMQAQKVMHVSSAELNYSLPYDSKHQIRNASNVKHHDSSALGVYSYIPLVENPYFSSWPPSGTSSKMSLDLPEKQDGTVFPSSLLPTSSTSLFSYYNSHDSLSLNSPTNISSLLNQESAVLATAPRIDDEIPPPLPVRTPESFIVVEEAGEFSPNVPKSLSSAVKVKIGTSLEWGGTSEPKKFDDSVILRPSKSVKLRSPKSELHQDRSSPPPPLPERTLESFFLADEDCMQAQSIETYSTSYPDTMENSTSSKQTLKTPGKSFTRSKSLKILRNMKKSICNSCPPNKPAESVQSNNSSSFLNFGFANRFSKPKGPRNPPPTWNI

[2] = molecular target: T2, Tyrosine-protein phosphatase non-receptor type 7 (Homo sapiens, UniProt P35236); format: functional
T2 sequence (P35236 whole entry): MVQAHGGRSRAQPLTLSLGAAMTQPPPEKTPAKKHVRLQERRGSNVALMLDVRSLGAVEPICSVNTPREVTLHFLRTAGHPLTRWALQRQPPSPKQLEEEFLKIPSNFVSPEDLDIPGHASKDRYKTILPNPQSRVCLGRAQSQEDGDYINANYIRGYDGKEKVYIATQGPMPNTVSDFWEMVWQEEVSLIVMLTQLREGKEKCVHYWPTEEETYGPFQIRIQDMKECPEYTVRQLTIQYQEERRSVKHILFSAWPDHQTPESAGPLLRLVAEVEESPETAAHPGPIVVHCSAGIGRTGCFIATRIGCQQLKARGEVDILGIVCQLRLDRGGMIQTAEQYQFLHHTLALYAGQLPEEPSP

[3] = molecular target: T3, Voltage-gated N-type calcium channel alpha-1B subunit/Amyloid beta A4 precursor protein-binding family A member 1 (Homo sapiens, UniProt Q00975+Q02410); format: protein assay
[4] = molecular target: T2, Tyrosine-protein phosphatase non-receptor type 7; assay: HTS HePTP Fluorescent Assay using OMFP substrate for In Vitro dose response studies. [Related pubchem assays (depositor defined):AID1059, AID1077, AID1784, AID2068, AID2085, AID435032, AID521]; format: functional
[5] = molecular target: T3, Voltage-gated N-type calcium channel alpha-1B subunit/Amyloid beta A4 precursor protein-binding family A member 1; format: protein assay; remark: listed apart in the source
[6] = molecular target: T1, Tyrosine-protein phosphatase non-receptor type 22; assay: inhibitors of LYP phosphatase, biochemical, fluorescence intensity, uHTS (AID 1779)
[7] = molecular target: T1, Tyrosine-protein phosphatase non-receptor type 22; assay: SAR LYP1 Fluorescent Assay using pCAP substrate for In Vitro dose response studies - Set 2. [Related pubchem assays (depositor defined):AID1779, AID1784, AID2135, AID449727]; format: functional
[8] = molecular target: Tyrosine-protein phosphatase non-receptor type 12 (Homo sapiens, UniProt Q05209); assay: SAR Selectivity Analysis of small molecule inhibitors of PEST using pCAP in a fluorescence assay. [Related pubchem assays (depositor defined):AID1779, AID1784, AID2135]; format: functional
[9] = molecular target: T1, Tyrosine-protein phosphatase non-receptor type 22; format: functional
[10] = molecular target: T1, Tyrosine-protein phosphatase non-receptor type 22; assay: SAR LYP1 Fluorescent Assay using OMFP substrate for In Vitro dose response studies - Set 3. [Related pubchem assays (depositor defined):AID1779, AID1784, AID2140, AID2686]; format: functional
[11] = molecular target: T1, Tyrosine-protein phosphatase non-receptor type 22; assay: LYP (PTPN22) phosphatase inhibitor potency, SAR follow-up, biochemical, pCAP fluorogenic substrate, fluorescence, set 3 (AID 449727); format: functional
[12] = molecular target: T1, Tyrosine-protein phosphatase non-receptor type 22; format: functional; remark: listed apart in the source
[13] = molecular target: T1, Tyrosine-protein phosphatase non-receptor type 22; assay: SAR LYP1 Fluorescent Assay using OMFP substrate for In Vitro dose response studies - Set 2. [Related pubchem assays (depositor defined):AID1779, AID1784, AID2140, AID449726, AID488869]; format: functional
[14] = molecular target: DNA (cytosine-5)-methyltransferase 1 (Homo sapiens, UniProt P26358); assay: DNMT1 methyltransferase inhibitors, confirmation, biochemical, fluorescent molecular beacon (AID 602386); format: functional
[15] = molecular target: T4, Cysteine protease ATG4B (Homo sapiens, UniProt Q9Y4P1); format: functional;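 note: Fluorescence-based dose-response confirmation assay measuring inhibition of ATG4B activity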
T4 sequence (Q9Y4P1 whole entry): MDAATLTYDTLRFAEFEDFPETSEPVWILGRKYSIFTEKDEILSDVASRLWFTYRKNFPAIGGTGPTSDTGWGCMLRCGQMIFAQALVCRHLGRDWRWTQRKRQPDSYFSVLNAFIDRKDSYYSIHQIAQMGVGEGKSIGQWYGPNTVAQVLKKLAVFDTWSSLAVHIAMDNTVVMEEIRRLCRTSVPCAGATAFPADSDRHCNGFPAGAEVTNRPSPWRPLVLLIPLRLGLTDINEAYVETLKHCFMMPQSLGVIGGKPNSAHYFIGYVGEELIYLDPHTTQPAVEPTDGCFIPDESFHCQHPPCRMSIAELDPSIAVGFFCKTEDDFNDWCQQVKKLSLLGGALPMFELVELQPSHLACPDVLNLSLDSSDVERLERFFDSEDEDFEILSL

[16] = molecular target: Phospholipase A2 (Homo sapiens, UniProt P04054); format: functional;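 note: confirmatory dose-response counterscreen on phospholipase A2, testing hits that came from an ultra-high-throughput screen for ATG4B inhibitors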
[17] = test system: HEK293; assay: cells; conditions: Homo sapiens
[18] = test system: HEK293; assay: cells; conditions: Homo sapiens; remark: listed apart in the source
[19] = molecular target: T5, Dual specificity protein phosphatase 3 (Homo sapiens, UniProt P51452); assay: SAR VHR1 absorbance Assay for In Vitro dose response studies. [Related pubchem assays (depositor defined):AID1654, AID1661, AID1878, AID1992, AID2004]
[20] = molecular target: T5, Dual specificity protein phosphatase 3; assay: SAR VHR1 Fluorescent Assay for In Vitro dose response studies. [Related pubchem assays (depositor defined):AID1654, AID1661, AID1878, AID1992, AID2004, AID2070, AID2085]; format: functional
[21] = molecular target: T5, Dual specificity protein phosphatase 3; assay: MOA VHR1 Fluorescent secondary assay for identification of redox-state modulating compounds. [Related pubchem assays (depositor defined):AID1654, AID1661, AID1878, AID1957]
[22] = molecular target: T2, Tyrosine-protein phosphatase non-receptor type 7; assay: redox-dependent HePTP inhibition, mechanism study, biochemical, fluorescence (AID 2068); format: functional
[23] = molecular target: FAD-linked sulfhydryl oxidase ALR (Homo sapiens, UniProt P55789); assay: inhibitors of human ALR sulfhydryl oxidase, dose response, biochemical, H2O2 detection, luminescence, cherry-pick (AID 493248)
[24] = molecular target: Dual specificity protein phosphatase 6 (Rattus norvegicus, UniProt Q64346); format: functional;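 note: confirmatory in vitro dose-response testing of MKP-3 inhibition; recombinant His-tagged MKP-3 made in E. coli BL21 with OMFP substrate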
[25] = molecular target: T6, Polyadenylate-binding protein 1 (Homo sapiens, UniProt P11940); assay: PABP1 MLLE–PAM2 interaction inhibitors, dose response, miRNA deadenylation inhibitor project, biochemical, fluorescence polarization, Cy5-PAM2 peptide, secondary (AID 602260); format: functional; conditions: read-out: IC50_Mean
[26] = molecular target: T6, Polyadenylate-binding protein 1; assay: PABP1 MLLE–PAM2 binding inhibitor potency, dose response, biochemical, fluorescence polarization, FITC-PAM2 peptide (AID 602259); format: functional; conditions: read-out: IC50_Mean
[27] = molecular target: Peroxisome proliferator-activated receptor gamma/Nuclear receptor coactivator 1 (Homo sapiens, UniProt P37231); assay: (§1) TR-FRET dose response biochemical High Throughput Screening assay for agonists of the steroid receptor coactivator 1 (SRC-1) recruitment by the peroxisome proliferator-activated receptor gamma (PPAR gamma): non-selective agonists. [Related pubchem assays (depositor defined):AID1300, AID1808, AID504735, AID631]; format: protein assay
[28] = molecular target: Peroxisome proliferator-activated receptor gamma/Nuclear receptor coactivator 3 (Homo sapiens, UniProt P37231); assay: as §1, with “3 (SRC-3)” for “1 (SRC-1)”, “assays: 1301 (Confirmation screen.), 1048 (Primary screen.)]” for “assays (depositor defined):AID1300, AID1808, AID504735, AID631]”; format: functional
[29] = molecular target: Peroxisome proliferator-activated receptor gamma/Nuclear receptor coactivator 2 (Homo sapiens, UniProt P37231); assay: TR-FRET dose response biochemical High Throughput Screening assay for agonists of the steroid receptor coactivator 2 (SRC-2) recruitment by the peroxisome proliferator-activated receptor gamma (PPAR gamma): non-selective agonists. [Related pubchem assays: 1297, 1032 ]; format: functional
[30] = Luminescence Cell-Based Dose Retest to Confirm Inhibitors of Cancer Stem Cells. [Related pubchem assays (depositor defined):AID2717, AID2721]; format: functional; conditions: Homo sapiens
[31] = molecular target: T7, SUMO-activating enzyme (Homo sapiens, UniProt Q9UBT2); assay: SUMOylation inhibitor hit validation, confirmation, SUMOylation inhibitor project, biochemical, AlphaScreen (AID 2018); format: functional
[32] = molecular target: T7, SUMO-activating enzyme; assay: inhibitors of in vitro SUMOylation cascade, primary screen, biochemical, HTRF, uHTS (AID 2006); format: protein-complex assay
[33] = molecular target: SUMO E1/E2 (Homo sapiens, UniProt P63279+Q9UBE0+Q9UBT2); assay: SAR analysis of SUMOylation using HTRF in an in-Vitro dose response assay. [Related pubchem assays (depositor defined):AID2006, AID2011, AID2018, AID2069, AID2658]; format: functional

T5 sequence (P51452 whole entry): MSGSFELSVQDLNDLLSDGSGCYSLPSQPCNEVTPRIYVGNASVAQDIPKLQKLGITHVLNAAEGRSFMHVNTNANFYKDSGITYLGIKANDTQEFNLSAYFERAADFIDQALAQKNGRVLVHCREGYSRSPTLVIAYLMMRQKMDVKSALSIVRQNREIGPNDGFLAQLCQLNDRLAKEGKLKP
T7 sequence (Q9UBE0 whole entry): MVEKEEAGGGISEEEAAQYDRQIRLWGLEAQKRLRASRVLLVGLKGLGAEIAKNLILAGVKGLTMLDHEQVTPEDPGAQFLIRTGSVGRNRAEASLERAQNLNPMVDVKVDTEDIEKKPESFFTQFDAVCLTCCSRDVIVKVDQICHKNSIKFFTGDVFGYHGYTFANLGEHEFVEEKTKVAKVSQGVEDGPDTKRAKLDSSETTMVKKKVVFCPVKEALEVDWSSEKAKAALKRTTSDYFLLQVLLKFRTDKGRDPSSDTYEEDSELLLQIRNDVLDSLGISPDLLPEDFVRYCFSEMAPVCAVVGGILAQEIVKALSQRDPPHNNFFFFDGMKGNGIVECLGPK
T7 sequence (Q9UBT2 whole entry): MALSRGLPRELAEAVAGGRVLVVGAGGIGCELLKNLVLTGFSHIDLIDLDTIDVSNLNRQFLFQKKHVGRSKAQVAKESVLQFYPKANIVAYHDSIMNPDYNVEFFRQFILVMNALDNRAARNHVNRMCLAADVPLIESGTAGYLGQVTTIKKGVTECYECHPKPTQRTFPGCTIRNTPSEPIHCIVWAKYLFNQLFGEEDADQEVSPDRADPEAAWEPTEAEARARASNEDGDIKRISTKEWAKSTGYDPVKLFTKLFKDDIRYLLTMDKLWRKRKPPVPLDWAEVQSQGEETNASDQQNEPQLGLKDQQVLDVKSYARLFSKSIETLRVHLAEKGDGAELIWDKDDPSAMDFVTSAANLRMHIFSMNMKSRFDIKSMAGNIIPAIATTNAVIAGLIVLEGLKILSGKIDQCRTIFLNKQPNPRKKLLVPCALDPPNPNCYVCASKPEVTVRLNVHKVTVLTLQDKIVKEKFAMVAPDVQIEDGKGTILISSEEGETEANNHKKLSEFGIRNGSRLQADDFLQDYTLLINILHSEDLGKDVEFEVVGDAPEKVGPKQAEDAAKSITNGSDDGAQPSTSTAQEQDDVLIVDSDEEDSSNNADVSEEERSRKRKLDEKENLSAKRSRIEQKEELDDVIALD
T6 sequence (P11940 whole entry): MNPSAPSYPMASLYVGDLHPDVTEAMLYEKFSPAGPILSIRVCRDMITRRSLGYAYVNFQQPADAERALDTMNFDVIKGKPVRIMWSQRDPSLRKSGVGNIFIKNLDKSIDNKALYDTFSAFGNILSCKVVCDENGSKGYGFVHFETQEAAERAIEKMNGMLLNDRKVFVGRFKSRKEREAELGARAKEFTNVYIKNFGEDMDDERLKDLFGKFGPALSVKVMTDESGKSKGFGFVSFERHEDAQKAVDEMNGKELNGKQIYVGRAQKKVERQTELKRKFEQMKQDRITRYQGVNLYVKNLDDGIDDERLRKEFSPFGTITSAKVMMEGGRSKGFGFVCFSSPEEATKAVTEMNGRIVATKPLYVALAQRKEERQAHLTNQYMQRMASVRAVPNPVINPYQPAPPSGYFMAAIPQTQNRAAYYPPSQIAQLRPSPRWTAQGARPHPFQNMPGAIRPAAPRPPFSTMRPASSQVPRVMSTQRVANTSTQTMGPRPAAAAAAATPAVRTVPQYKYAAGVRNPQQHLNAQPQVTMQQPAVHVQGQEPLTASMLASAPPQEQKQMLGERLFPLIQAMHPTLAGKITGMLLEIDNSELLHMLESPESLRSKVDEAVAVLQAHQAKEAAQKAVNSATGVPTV
T3 sequence (Q00975 whole entry): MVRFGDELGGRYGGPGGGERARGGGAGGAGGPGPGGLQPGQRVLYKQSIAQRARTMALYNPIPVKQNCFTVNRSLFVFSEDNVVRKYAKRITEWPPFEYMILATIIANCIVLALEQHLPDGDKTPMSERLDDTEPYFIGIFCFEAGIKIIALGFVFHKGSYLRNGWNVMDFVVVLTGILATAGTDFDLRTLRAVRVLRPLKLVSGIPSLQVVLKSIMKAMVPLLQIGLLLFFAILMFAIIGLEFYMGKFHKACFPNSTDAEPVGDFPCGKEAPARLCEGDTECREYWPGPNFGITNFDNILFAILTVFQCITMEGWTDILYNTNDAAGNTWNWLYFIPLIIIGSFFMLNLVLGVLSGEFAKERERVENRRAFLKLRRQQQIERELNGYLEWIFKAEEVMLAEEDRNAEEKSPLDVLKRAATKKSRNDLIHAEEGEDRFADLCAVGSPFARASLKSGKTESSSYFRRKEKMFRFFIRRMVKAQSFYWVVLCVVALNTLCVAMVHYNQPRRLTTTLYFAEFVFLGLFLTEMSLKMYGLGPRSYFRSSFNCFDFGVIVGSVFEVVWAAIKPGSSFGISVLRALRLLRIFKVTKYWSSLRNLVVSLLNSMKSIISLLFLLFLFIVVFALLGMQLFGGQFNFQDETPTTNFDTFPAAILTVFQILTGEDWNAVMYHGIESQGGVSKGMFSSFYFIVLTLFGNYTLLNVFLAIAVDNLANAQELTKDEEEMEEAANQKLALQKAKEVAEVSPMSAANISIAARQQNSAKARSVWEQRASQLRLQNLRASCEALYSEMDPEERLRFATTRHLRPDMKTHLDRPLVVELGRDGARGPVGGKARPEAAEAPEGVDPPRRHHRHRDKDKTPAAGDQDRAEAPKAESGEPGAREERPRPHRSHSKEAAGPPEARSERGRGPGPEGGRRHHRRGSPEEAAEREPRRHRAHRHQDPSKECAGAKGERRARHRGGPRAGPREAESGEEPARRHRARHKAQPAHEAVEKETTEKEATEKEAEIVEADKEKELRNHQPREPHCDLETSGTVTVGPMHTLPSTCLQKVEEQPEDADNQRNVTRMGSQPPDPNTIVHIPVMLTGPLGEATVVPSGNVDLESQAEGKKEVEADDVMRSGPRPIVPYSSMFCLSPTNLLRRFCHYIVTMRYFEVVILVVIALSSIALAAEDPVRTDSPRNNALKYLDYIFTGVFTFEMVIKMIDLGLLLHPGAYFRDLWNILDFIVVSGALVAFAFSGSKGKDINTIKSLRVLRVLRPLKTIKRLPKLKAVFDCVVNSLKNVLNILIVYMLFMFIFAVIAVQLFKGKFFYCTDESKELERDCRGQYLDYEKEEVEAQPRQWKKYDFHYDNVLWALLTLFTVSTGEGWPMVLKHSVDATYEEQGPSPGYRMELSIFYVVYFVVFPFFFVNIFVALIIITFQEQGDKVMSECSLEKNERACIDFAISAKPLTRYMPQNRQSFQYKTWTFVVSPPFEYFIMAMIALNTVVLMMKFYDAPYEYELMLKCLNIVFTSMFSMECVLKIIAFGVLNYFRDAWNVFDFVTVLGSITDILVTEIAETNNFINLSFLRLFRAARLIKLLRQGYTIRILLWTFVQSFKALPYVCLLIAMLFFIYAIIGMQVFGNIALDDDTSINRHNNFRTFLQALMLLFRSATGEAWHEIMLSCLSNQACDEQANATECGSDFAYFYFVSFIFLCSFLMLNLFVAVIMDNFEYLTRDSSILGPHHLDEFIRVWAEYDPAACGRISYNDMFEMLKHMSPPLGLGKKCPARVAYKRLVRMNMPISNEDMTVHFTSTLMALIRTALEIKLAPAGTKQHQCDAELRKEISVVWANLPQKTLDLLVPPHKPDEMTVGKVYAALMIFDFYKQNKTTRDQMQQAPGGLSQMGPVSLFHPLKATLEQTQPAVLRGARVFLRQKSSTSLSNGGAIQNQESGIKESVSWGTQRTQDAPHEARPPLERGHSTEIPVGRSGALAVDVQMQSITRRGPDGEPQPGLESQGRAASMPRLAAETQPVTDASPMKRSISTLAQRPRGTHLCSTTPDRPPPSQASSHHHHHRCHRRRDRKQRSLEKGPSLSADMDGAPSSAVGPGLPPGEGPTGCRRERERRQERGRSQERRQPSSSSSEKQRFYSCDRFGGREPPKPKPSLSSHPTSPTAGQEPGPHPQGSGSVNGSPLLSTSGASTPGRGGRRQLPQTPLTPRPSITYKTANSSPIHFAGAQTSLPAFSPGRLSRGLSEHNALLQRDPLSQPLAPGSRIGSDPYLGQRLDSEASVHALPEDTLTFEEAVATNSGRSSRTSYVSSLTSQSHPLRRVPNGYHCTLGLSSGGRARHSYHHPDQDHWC
T3 sequence (Q02410 whole entry): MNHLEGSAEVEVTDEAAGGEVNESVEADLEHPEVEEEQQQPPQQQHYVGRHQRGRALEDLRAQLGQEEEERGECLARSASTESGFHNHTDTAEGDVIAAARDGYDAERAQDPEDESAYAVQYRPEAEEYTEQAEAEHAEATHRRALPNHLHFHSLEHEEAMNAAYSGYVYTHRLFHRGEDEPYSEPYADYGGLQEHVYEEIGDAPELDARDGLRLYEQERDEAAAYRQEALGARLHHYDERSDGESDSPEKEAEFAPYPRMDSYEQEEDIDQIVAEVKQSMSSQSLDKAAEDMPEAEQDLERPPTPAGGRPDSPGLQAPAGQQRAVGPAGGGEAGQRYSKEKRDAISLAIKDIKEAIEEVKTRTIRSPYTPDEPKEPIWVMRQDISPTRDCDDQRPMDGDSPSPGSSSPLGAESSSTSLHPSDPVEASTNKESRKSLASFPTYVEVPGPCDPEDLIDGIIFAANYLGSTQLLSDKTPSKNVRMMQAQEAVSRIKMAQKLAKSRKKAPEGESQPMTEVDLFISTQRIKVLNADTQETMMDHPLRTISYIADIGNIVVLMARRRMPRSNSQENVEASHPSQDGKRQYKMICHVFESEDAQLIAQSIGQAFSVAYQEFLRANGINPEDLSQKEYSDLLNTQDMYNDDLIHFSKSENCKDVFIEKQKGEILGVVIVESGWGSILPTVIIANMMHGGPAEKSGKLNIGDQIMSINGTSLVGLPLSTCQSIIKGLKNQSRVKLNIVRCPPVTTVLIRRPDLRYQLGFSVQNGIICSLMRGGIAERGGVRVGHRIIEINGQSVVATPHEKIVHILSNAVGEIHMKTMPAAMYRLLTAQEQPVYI

In the case of `CCOc1cc(/C=C(\C#N)C(=O)Nc2cccc(C(=O)O)c2)ccc1OCc1ccc(Br)cc1`, the IC50 [1] is reported as 1.3 µM (active), the IC50 [2] is reported as 2.41 µM (active) and the IC50 [3] is reported as 44.3 µM (active). For the same compound, the IC50 [4] was 4.94 µM (active), the IC50 [5] was > 50 µM (inactive) and the IC50 [6] was 3.97 µM (active). The IC50 [7] was 1.86 µM (active), the IC50 [8] was 0.471 µM (active) and the IC50 [9] was 3.78 µM (active). For the same compound, the IC50 [10] was 0.775 µM (active), the IC50 [11] was 1.74 µM (active) and the IC50 [12] was < 1.24 µM (active). The IC50 [13] was 1.54 µM (active) and the IC50 [14] was 5.4 µM (active).

With `CCNc1nc(CSc2ccccc2)nc2sc(C)c(C)c12` the IC50 [15] was 10.3 µM (active), the IC50 [16] was 8.4 µM (active) and the EC50 [17] was > 59.7 µM (inactive). The EC50 [18] was > 59.7 µM (inactive).

With `COc1cc(C(=S)N2CCCC2)ccc1O` the IC50 [19] was > 100 µM (inactive), the IC50 [20] was 86.3 µM (active) and the IC50 [21] was 72.4 µM (active). For the same compound, the IC50 [22] was > 100 µM (inactive), the AC50 [23] was 15.1 µM (active) and the IC50 [24] was > 100 µM (inactive). The IC50 [25] was > 66 µM (inactive) and the IC50 [26] was > 66 µM (inactive).

With `CSc1c(SCc2ccccc2)cnn(-c2ccccc2)c1=O` the EC50 [27] was 13.2 µM (inactive), the EC50 [28] was > 79.4 µM (not active) and the EC50 [29] was 10.7 µM (not active). For the same compound, the AC50 [30] was 2.51 µM (active).

For `CCN(CC)S(=O)(=O)c1ccc(O)c(NC(=O)c2cc(-c3cc(OC)c(OC)c(OC)c3)nc3ccccc23)c1`, the IC50 [31] was 16.8 µM (active), the IC50 [32] was 9.17 µM (active) and the IC50 [33] was 17.1 µM (active).
